Columns and labels:
[1] = target: T1, CISD3 Gene Product (Miner2) (Homo sapiens, UniProt P0C7P0); assay: Stability of Fe-S cluster binding of purified NEET protein (absorbance 458 nm); type: biochemical; conditions: for Residual cluster bound at end of experiment (Percentage Absorbance 458 nm at time zero): CISD3 gene product, at 180 minutes, vehicle control (DMSO) 11%; for Residual cluster bound at end of experiment (Percentage Absorbance 458 nm at time zero) / Time (in minutes) to achieve 50% loss of bound cluster (Absorbance 458 nm): 60 μM compound; for Time (in minutes) to achieve 50% loss of bound cluster (Absorbance 458 nm) / Stabiliser of Fe—S cluster binding (time to 50% loss increased by more than 25% vs control): Miner2; for Time (in minutes) to achieve 50% loss of bound cluster (Absorbance 458 nm): pH 6, 37° C., 20 μM protein, run time 180 minutes, vehicle control 60; for Stabiliser of Fe—S cluster binding (time to 50% loss increased by more than 25% vs control): at the concentrations tested
T1 sequence (P0C7P0 15-127): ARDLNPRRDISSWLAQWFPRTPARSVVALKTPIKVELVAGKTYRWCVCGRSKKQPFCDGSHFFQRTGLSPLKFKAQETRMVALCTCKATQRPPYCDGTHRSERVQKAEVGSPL
Protocol: (§1) The modulator effect on the NEET proteins encoded by human CISD1, CISD2, and CISD3 genes by the compounds of the invention has been tested and is reported below. Particularly, the biochemical function of the NEET proteins is measured by the stability of Fe—S cluster binding of the purified NEET proteins.
(§2) The Fe—S cluster binding capacity of NEET proteins is known to be coordinated by four amino-acids in a stretch of 16 (three Cysteine and one Histidine). As the lability of the Fe—S cluster of NEET proteins is sensitive to the environment, cluster stability measurements are one of the measures of interactions of NEET proteins with small molecules and compounds. NEET protein/2Fe-2S cluster stability can be assessed by monitoring the decay in absorbance of its characteristic 458-nm peak (characteristic of the oxidized 2Fe-2S cluster) over time. Each NEET protein (mitoNEET, NAF-1 and Miner 2) was tested for its Fe—S binding in the absence or presence of a compound according to the invention (see table 3 below). The rate of cluster release (time in minutes to achieve 50% loss of bound Fe—S cluster) was compared for each NEET protein in the presence of one of the compounds of the invention (in a 1:3 protein:compound molar ratio) relative to each protein alone.
(§3) At pH 6, all the three NEET proteins (mitoNEET, NAF-1 and Miner 2) have a characteristic rate of loss of the bound Fe—S cluster that can be measured by the decrease of absorbance at wavelength 458 nm over time, using a spectrophotometer. Thus, Bis-Tris buffer (100 mM Bis-Tris pH6, 100 mM Nacl) was used at pH 6 to dilute either DMSO (Blank sample: Bis-Tris Buffer pH 6, 66 μM DMSO), DMSO and one of the three NEET proteins (Control sample: Bis-Tris Buffer pH 6, 66 μM DMSO, 20 μM purified NEET protein) or DMSO, one of the three NEET proteins and a compound of the invention (Test sample: Bis-Tris Buffer pH 6, 66 μM DMSO, 20 μM purified NEET protein, 60 μM compound of the invention).
(§4) A reaction mix containing DMSO diluted in the Bis-Tris Buffer with or without a compound of the invention was prepared. The purified NEET protein was the last component added to the reaction mix which was then aliquoted into 4 replicates in 96 wells plates. The absorbance at wavelength 458 nm was taken at 5 minutes intervals at 37° C. with a spectrofluorimeter. The assay run time for CISD2 gene product (NAF-1) was 500 minutes and 180 minutes for both the CISD 1 gene product (mitoNEET) and the CISD3 gene product (Miner 2).
(§5) In addition to time monitoring, residual bound Fe—S cluster to NEET protein was measured at the final point of the spectrometry assay for each Test sample and compared to the Control sample data (in parenthesis table 3). This residual binding is measured by the differential percentage between the absorbance 458 nm at time zero and the absorbance 458 nm at the end of the experiment (i.e. respectively 500 or 180 minutes as described hereabove), showing the percentage of NEET protein still able to bind Fe—S cluster.
(§6) Analysis of the absorbance enables the time for which 50% loss of bound Fe—S cluster is reached (i.e. a 50% absorbance decrease at 458 nm) for each Test sample and each Control sample (in parenthesis table 3) to be determined. The data are then compared to determine whether the compound of the invention stabilizes or destabilizes the NEET protein/Fe—S cluster binding.
(§7) Stabilisers of Fe—S cluster binding by the NEET proteins slow the release of bound Fe—S (i.e. increase the time needed to reach 50% Fe—S cluster bound loss by more than 25% for the Test sample compared to the Control sample). As illustrated by table 3, at the concentrations tested, stabilisers of CISD1 Gene Product (mitoNEET) are the compounds #9, #18, #26, #2, #1, and #42. Stabilisers of CISD2 Gene Product (NAF-1) are the compounds #2, #1, and #40. Stabilisers of CISD3 Gene Product (Miner2) are the compounds #9, #18, #26, #2, #1, and #42.

[2] = target: T2, CISD1 Gene Product (mitoNEET) (Homo sapiens, UniProt Q9NZ45); assay: as above; type: biochemical; conditions: for Residual cluster bound at end of experiment (Percentage Absorbance 458 nm at time zero): at 180 minutes, vehicle control 16%; for Residual cluster bound at end of experiment (Percentage Absorbance 458 nm at time zero) / Time (in minutes) to achieve 50% loss of bound cluster (Absorbance 458 nm): 60 μM compound; for Time (in minutes) to achieve 50% loss of bound cluster (Absorbance 458 nm): pH 6, 37° C., 20 μM protein, run time 180 minutes, vehicle control 80; for Stabiliser of Fe—S cluster binding (time to 50% loss increased by more than 25% vs control): at the concentrations tested
T2 sequence (Q9NZ45 33-108 limits assumed): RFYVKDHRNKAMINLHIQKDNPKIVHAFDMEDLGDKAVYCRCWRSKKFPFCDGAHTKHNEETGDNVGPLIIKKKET
Protocol: as §1, §2, §3, §4, §5, §6, §7

[3] = target: T3, CISD2 Gene Product (NAF-1) (Homo sapiens, UniProt Q8N5K1); assay: as above; type: biochemical; conditions: for Residual cluster bound at end of experiment (Percentage Absorbance 458 nm at time zero): at 500 minutes, vehicle control 3%; for Residual cluster bound at end of experiment (Percentage Absorbance 458 nm at time zero) / Time (in minutes) to achieve 50% loss of bound cluster (Absorbance 458 nm): 60 μM compound; for Stabiliser of Fe—S cluster binding (time to 50% loss increased by more than 25% vs control): at the concentrations tested; for Time (in minutes) to achieve 50% loss of bound cluster (Absorbance 458 nm): pH 6, 37° C., 20 μM protein, run time 500 minutes, vehicle control 310
T3 sequence (Q8N5K1 57-135 limits assumed): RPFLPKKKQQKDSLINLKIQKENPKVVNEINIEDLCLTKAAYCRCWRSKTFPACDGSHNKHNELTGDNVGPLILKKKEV
Protocol: as §1, §2, §3, §4, §5, §6, §7

[4] = system: H1N1 (influenza A/New Caledonia/20/99); assay: Antiviral effect on A549 cells infected with H1N1; type: cell-based, H1N1 A/New Caledonia/20/99 virus; conditions: Influenza A virus, MOI 0.1, 48 h post-infection, MUNANA neuraminidase readout
Protocol: The antiviral effect of the compounds of the invention have been tested on A549 cell lines infected with H1N1 (influenza A/New Caledonia/20/99).
Human A549 cells (80,000 cells/well in a 96 well plate) were treated with a range of concentration of test compounds and immediately infected by H1N1 A/New Caledonia/20/99 virus (clinical isolate) at MOI of 0.1 in DMEM/1% Penicillin/streptomycin supplemented with […] TPCK trypsin (Sigma) and incubated at 37° C. in 5% CO2. 48 h post-infection, supernatants (25 μl) were collected and transferred into a 96-well black flat-bottom plate, mixed with 25 μl PBS with Ca++/Mg++ (Thermo Fisher) and 50 μl of 2′-(4-Methylumbelliferyl)-ax-D-N-acetylneuraminic acid sodium salt hydrate stock-solution (20 μM, MUNANA, Sigma). Plates were incubated 1h at 37° C. and reaction is stopped by adding 100 μl of Stop Solution (glycine 0.1 M pH10.7/25% ethanol). The amount of fluorescent product released by MUNANA hydrolysis (4-MU) was measured in a Tecan spectrophotometer with excitation and emission wavelengths of 365 and 450 nm respectively.

[5] = system: NFκB; assay: NFκB reporter assay, TNFα stimulation of A549 reporter cells; type: cell-based; conditions: Homo sapiens; A549 NFκB-NanoLuciferase reporter cells, 4 ng/ml TNFα, 6 hours
Source text: Compounds of the present invention have been tested for their capacity to inhibit NFκB.
The NFκB reporter construct was made by cloning 5 NFκB responsive elements upstream of a NanoLuciferase reporter gene flanked by AAVS1 genomic sequences.
NFκB Responsive element fused with NanoLuciferase and SV40 late Poly(A) signal was amplified from pNL3.2-NFκB-Nluc (Promega) using NFκB-NLUC-F and NFκB-NLUC-R primers and inserted by Infusion (TaKaRa) in AAVS1 SA-2A-puro-pA donor plasmid (Hockemeyer et al, Nat Biotechnol. 2009, 27, 851-7) digested by Sall. pCRISPR AAVS1-T2 expressing a guide RNA (gRNA) to target human AAVS1 (T2 target sequence) was constructed by inserting AAVS1-T2A hybridized primers in pLentiCRISPR v2-blast (Sanjana et al, Nat Methods. 2014, 11, 783-4) digested by Bsmb1.
A549 cells were transfected by the plasmids and puromycine selected for 5 days (1 μg mL-1). Then clones were obtained by limiting dilution and selected to maximize TNFα dependent NFkB-NanoLuciferase induction.
The reporter cells were seeded on a 96-well plate for overnight with DMEM including 10% FBS. Test compounds were added at varying concentrations. The cells then were treated with 4 ng/ml TNFα (Peprotech, ref E251) in DMEM+10% FBS. NanoGlo luciferase assay (Promega) was carried out 6 hours later. Luminescence was measured using a Spark 20M spectrofluorimeter (Tecan). Values were normalized to the luminescence measured in untreated cells.

Compound	Residual cluster bound at end of experiment (Percentage Absorbance 458 nm at time zero) [1]	Time (in minutes) to achieve 50% loss of bound cluster (Absorbance 458 nm) [1]	Residual cluster bound at end of experiment (Percentage Absorbance 458 nm at time zero) [2]	Time (in minutes) to achieve 50% loss of bound cluster (Absorbance 458 nm) [2]	Residual cluster bound at end of experiment (Percentage Absorbance 458 nm at time zero) [3]	Stabiliser of Fe—S cluster binding (time to 50% loss increased by more than 25% vs control) [3]	Time (in minutes) to achieve 50% loss of bound cluster (Absorbance 458 nm) [3]	IC50 [4]	Stabiliser of Fe—S cluster binding (time to 50% loss increased by more than 25% vs control) [1]	Stabiliser of Fe—S cluster binding (time to 50% loss increased by more than 25% vs control) [2]	EC50 [5]
Cc1c(-c2ccccc2)sc(NC(=O)c2ccccc2)c1C(=O)O [Compound #40, 2-Benzamido-4-methyl-5-phenyl-thiophene-3-carboxylic acid]	24% (11%)	70 (60) minutes	6% (16%)	95 (80) minutes	9% (3%)	Stabilisers	390 (310) minutes	2470 nM	–	–	–
O=C(Nc1scc(C2CCCCC2)c1C(=O)O)c1ccccc1 [Compound #26, 2-Benzamido-4-cyclohexyl-thiophene-3-carboxylic acid]	52% (11%)	during 180 minutes	36% (16%)	105 (80) minutes	18% (3%)	–	355 (310) minutes	745 nM	Stabilisers	stabilisers	–
O=C(Nc1scc(-c2ccc(Cl)cc2)c1C(=O)O)c1ccccc1 [Compound #1, 2-Benzamido-4-(4-chlorophenyl)thiophene-3-carboxylic acid]	47% (11%)	85 (60) minutes	29% (16%)	100 (80) minutes	13% (3%)	Stabilisers	425 (310) minutes	298 nM	Stabilisers	stabilisers	–
CC1(c2csc(NC(=O)c3ccc(NCC4CCOCC4)cc3)c2C(=O)O)CC1 [Compound #111, 4-(1-Methylcyclopropyl)-2-[[4-(tetrahydropyran-4-ylmethylamino)benzoyl]amino]thiophene-3-carboxylic acid]	–	–	–	–	–	–	–	200 nM	–	–	2200 nM
Cc1ccccc1C(=O)Nc1scc(-c2ccccc2)c1C(=O)O [Compound #42, 2-[(2-Methylbenzoyl)amino]-4-phenyl-thiophene-3-carboxylic acid]	37% (11%)	75 (60) minutes	24% (16%)	100 (80) minutes	2% (3%)	–	330 (310) minutes	5870 nM	Stabilisers	stabilisers	–
COc1ccc(C(=O)Nc2scc(-c3ccccc3)c2C(=O)O)cc1OC [Compound #46, 2-[(3,4-Dimethoxybenzoyl)amino]-4-phenyl-thiophene-3-carboxylic acid]	–	–	–	–	–	–	–	9650 nM	–	–	–
COC1CN(c2ccc(C(=O)Nc3scc(C4(C)CC4)c3C(=O)O)cc2)C1 [Compound #112, 2-[[4-(3-Methoxyazetidin-1-yl)benzoyl]amino]-4-(1-methylcyclopropyl) thiophene-3-carboxylic acid]	–	–	–	–	–	–	–	380 nM	–	–	–
Cc1sc(NC(=O)c2ccc(NCC3CCOCC3)cc2)c(C(=O)O)c1C [Compound #102, 4,5-Dimethyl-2-[[4-(tetrahydropyran-4-ylmethylamino)benzoyl]amino]thiophene-3-carboxylic acid]	–	–	–	–	–	–	–	820 nM	–	–	–
CC(C)Cc1csc(NC(=O)c2ccc(NCC3CCOCC3)cc2)c1C(=O)O [Compound #113, 4-Isobutyl-2-[[4-(tetrahydropyran-4-ylmethylamino)benzoyl]amino]thiophene-3-carboxylic acid]	–	–	–	–	–	–	–	120 nM	–	–	–
